In patent US20120201908A1, “METHOD OF TREATING BIPOLAR DISORDER OR DEPRESSION USING AN ANTIESTROGEN” (Lunera Equities, LLLP, priority 2009, published 2012):
Entries after “also recorded” stand apart in the source; their conditions may differ. Where a name gives a salt, the structure may show the parent alone. Read-outs that look alike come from different tables or passages of the source.

How the values were obtained:
[1] = system: protein kinase C alpha and epsilon isozymes; conditions: rat frontal cortex and hippocampus; Manji et al. 1999; cited from earlier work
[2] = system: symptoms of bipolar disorder (bipolar disorder I); conditions: human, in vivo
Description: (§1) The following list describes the drugs that were tried in combination with Eskalith: • 1. Depakote® (Divalproex Sodium Delayed Release Tablets) 50 mg daily. […] Tegretol XR® (Carbamazepine) 200 mg twice daily. […] Risperdal® (Risperidone) 3 mg per day. […] Prozac® (Olanzapine and Fluoxetine hydrochloride) 20 mg twice daily. […] Klonopin® (Clonazepam): originally from 2002 to 2009 was 8 mg to 10 mg daily for generalized anxiety. […] Lamictal® (Lamotrigine) Titration schedule over five weeks up to 250 mg twice daily.

[3] = system: symptoms of bipolar disorder (bipolar disorder I); test: Case report Subject A: antiestrogen to treat symptoms of bipolar disorder; conditions: for effect of earlier medication on bipolar mood swings / side effects / reason for discontinuation of earlier medication: medication history before the antiestrogen; for mood swings with the antiestrogen as only bipolar medication: tamoxifen citrate 20 mg base equivalents or Arimidex 1 mg, once every day or every other day
Description: as §1

[4] = in vivo; cited from earlier work
[5] = system: symptoms of bipolar disorder; test: Pilot study Subject E: tamoxifen citrate added to bipolar medication, mood charts and psychiatrist visits; format: in vivo, human
From the text: Subject E is a person and an insulin dependent diabetic. Subject E was diagnosed with bipolar disorder at […]. They have had surgery in the past for their knees, their neck and stitches for their head. Subject E has been institutionalized multiple times within the last nine years for their own protection. To date, no medications have seemed to help. Subject also has a history of alcoholism. Some complexity was expected in treatment due to diabetes.

[6] = system: symptoms of bipolar disorder (bipolar I); test: Pilot study Subject D: tamoxifen citrate added to bipolar medication, mood charts and psychiatrist visits; format: in vivo, human
From the text: Subject D is a person with a family history of bipolar disorder. Although Subject D had symptoms spanning Asperger's Syndrome, Bipolar I, Obsessive-Compulsive Disorder, Oppositional Defiant Disorder and anti-social traits, bipolar I was the diagnosis for several reasons, including the fact that it was present on both sides of the family and the symptoms were better suited to a bipolar diagnosis.
First visit: Day 1. Due to Subject D's extreme condition, past hospitalizations and the complicated mixture of medications, the psychiatrist spent approximately one hour with the subject. […] Subject D was also given a copy of the Gary Sach's Mood Chart for the subject and their parent to be filled out daily for the psychiatrist's weekly review.

[7] = system: symptoms of bipolar disorder (bipolar disorder II); test: Case report Subject B: antiestrogen to treat symptoms of bipolar disorder; format: in vivo, human
Description: Subject B is a person in good general physical health with a family history of bipolar disorder. Subject B underwent Cholecystectomy. Subject B was diagnosed with Meniere's Syndrome. Subject B was diagnosed with bipolar disorder II, at which time Lamictal was prescribed by a psychiatrist. […] The psychiatrist then prescribed Effexor XR® (venlafaxine hydrochloride) 75 mg/daily. […] A general physician prescribed 1.5 mg/Klonopin® (Clonazepam) daily.
Subject B also remained mentally alert and stable. […] Currently, Subject B remains stable and emotionally level.
Subject B's spouse states that Subject B is much more level, enjoys their life to a new degree, no longer loses control or becomes violent without warning. The entire family feels that life is much easier since Subject B began taking the antiestrogen.

[8] = system: symptoms of acute/severe depression; test: Case report Subject C: antiestrogen in descending daily dosing to treat acute/severe depression; format: in vivo, human; conditions: for time to lessening of symptoms of depression after the first dose: single dose on day one: tamoxifen citrate 20 mg or Arimidex 1 mg; for symptoms of depression after the descending dose course: tamoxifen citrate 20/10/5/2.5/2.5 mg days 1-5, Arimidex 1/0.5/0.25/0.25 mg days 1-4
From the text: Subject C is a person in good general physical health with no previous history of mental illness or depression. Subject C was prescribed Dapsone as a child in order to treat to treat dermititis herpetiformis. Subject C received no medication in the past four years. In December 2008, Subject C became lethargic, uninterested in usually pleasurable activities, restless, and began oversleeping. After a full month, symptoms of depression became extreme and subject C was thought to be in danger of becoming suicidal.
Subject C's last dose was 2.5 mg on the fifth day.
Suicidal thoughts returned and Subject C considered dropping out of law school. Subject C started a descending dose course of Arimidex®; starting with a single dose of 1 mg on day one. Again, symptoms of depression faded noticeably within 8 hours, in a manner similar to that in response to treatment with tamoxifen. Subject C took single daily doses of Arimidex®; 0.5 mg on day two; 0.25 mg each on days three and four.

[9] = system: mania in patients with bipolar disorder; conditions: Yildiz et al. 2008; cited from earlier work
[10] = system: symptoms of bipolar disorder; conditions: Subject F; for onset of noticed difference: tamoxifen citrate 20 mg qd
From the text: In a preferred aspect, the patient fills out the mood chart on a regular basis and a family member, friend, roommate or clinical or institutional staff member who interacts with the patient on a regular basis, also records a parallel mood chart on a regular basis. […] In another aspect, a mood chart is started at the start of treatment with an antiestrogen.
Subject F is a person who experienced a coronary three years prior to starting the study that their doctors blamed on stimulants used for ADD. Subject F had stents placed following the coronary. […] They maintain a job where they can do much of the work from home. It has been over a year since they were so severe they could not get out of bed or work. They have not had any extreme episodes in the immediate past. Subject F is nearsighted and has high blood pressure.

## CCCC(CCC)C(=O)O [Depakote, Divalproex Sodium]
[1]
  protein kinase C alpha and epsilon isozymes: reduction in protein kinase C alpha and epsilon isozymes
[2]
  side effects / reason for discontinuation of earlier medication: heavy side effects

## NC(=O)N1c2ccccc2C=Cc2ccccc21 [Tegretol XR, Carbamazepine]
[2]
  side effects / reason for discontinuation of earlier medication: hand and body tremors, as well as slurring of speech and numb feeling tongue
[3]
  effect of earlier medication on bipolar mood swings: Worked for a few weeks

## CCCCCCCCCC(=O)O[C@H]1CC[C@H]2[C@@H]3CCC4=CC(=O)CC[C@@H]4[C@H]3CC[C@]12C [Nandrolone deconate]
[3]
  side effects / reason for discontinuation of earlier medication: Erythrocytosis

## CC(NC(C)(C)C)C(=O)c1cccc(Cl)c1 (stereo not shown) [Wellbutrin, bupropion hydrochloride]
[2]
  side effects / reason for discontinuation of earlier medication: dulled their mind and slowed their thinking

## OCCOCCN1CCN(C2=Nc3ccccc3Sc3ccccc32)CC1 [Seroquel, quetiapine fumarate]
[2]
  side effects / reason for discontinuation of earlier medication: extreme tiredness and inability to function

## Nc1nnc(-c2cccc(Cl)c2Cl)c(N)n1 [Lamictal, Lamotrigine]
[4]
  patients who develop a rash: 5-10%
[2]
  side effects / reason for discontinuation of earlier medication: worsening skin condition; aggravated linear IgA dermatosis
[3]
  effect of earlier medication on bipolar mood swings: Mood swings were more frequent without Lamictal

## O=C1CCc2ccc(OCCCCN3CCN(c4cccc(Cl)c4Cl)CC3)cc2N1 [Abilify, Aripiprazole]
[5]; Day 27, Abilify 5 mg qd not taken for 7 days
  mood after self-discontinuing Abilify: experienced some depression and mild anxiety and irritability
[5]; Day 34, Abilify 5 mg qd
  mood after resuming Abilify: much better week

## C[C@]12C=CC(=O)C=C1CC[C@@H]1[C@@H]2C(=O)C[C@@]2(C)[C@H]1CC[C@]2(O)C(=O)CO [Prednisone]
[2]
  side effects / reason for discontinuation of earlier medication: made all physical and mental conditions worse

## O=C([O-])[O-].[Li+].[Li+] [Eskalith, Lithium Carbonate]
[1]
  protein kinase C alpha and epsilon isozymes: reduction in protein kinase C alpha and epsilon isozymes
[3]
  effect of earlier medication on bipolar mood swings: slowed the swings, but did not change the severity of either the depressive or manic episodes
  side effects / reason for discontinuation of earlier medication: damage to the thyroid

## Cc1ccc(-c2nc3ccc(C)cn3c2CC(=O)N(C)C)cc1 [Ambien]
[6]; Day 95, Ambien sample for trial
  sleep: helped their sleeping

## CC(C)(C#N)c1cc(Cn2cncn2)cc(C(C)(C)C#N)c1 [Arimidex, anastrozole]
[7]; Arimidex 0.25-1 mg used interchangeably with tamoxifen citrate 10 mg every other day
  response when Arimidex replaces tamoxifen citrate: without change in response; also recorded: work equally as well
[8]
  symptom-free period after the course: After five months, Subject C remains free of symptoms of depression
  time to lessening of symptoms of depression after the first dose: ≤ 8 h
  symptoms of depression after the descending dose course: Symptoms of depression were substantially alleviated after day four
[3]; Arimidex 1 mg once a day, within a week of starting
  severity of bipolar episodes and symptoms: episodes and symptoms became less severe
[3]
  mood swings with the antiestrogen as only bipolar medication: controls mood swings without the concurrent use of other bipolar medication; also recorded: mood swings became virtually non-existent
[3]; while taking Arimidex 1 mg once a day
  frequency of bipolar cycles: cycles were less frequent

## COc1ccc(C(CN(C)C)C2(O)CCCCC2)cc1 (stereo not shown) [Effexor XR, venlafaxine hydrochloride]
[7]; Lamictal 10-12 weeks, Effexor XR 75 mg/daily for three days
  side effects / reason for discontinuation of earlier medication: lack of sleep, extreme mania, high anxiety and hyperactivity

## CC/C(=C(\c1ccccc1)c1ccc(OCCN(C)C)cc1)c1ccccc1.O=C(O)CC(O)(CC(=O)O)C(=O)O [Tamoxifen citrate, (Z)2-[4-(1,2-diphenyl-1-butenyl)phenoxy]-N,N-dimethylethanamine 2-hydroxy-1,2,3-propanetricarboxylate (1:1)]
[9]
  treatment of mania: effective in treatment of mania in patients with bipolar disorder
[6]; Day 9, tamoxifen citrate 20 mg qd
  mood and energy as told to the psychiatrist: happier than they have been in a long time and has more energy
[6]; tamoxifen citrate 20 mg qd added to Lithium ER, Depakote ER, Risperidone, Geodon
  onset of feeling more balanced: began feeling more balanced after only four days
[6]; to Day 153, tamoxifen 20-30 mg daily
  reduction of concurrent bipolar medication: the doses of Depakote ER, Risperidone and Geodon were each able to be significantly reduced and Lithium was able to be discontinued
[5]; Day 34, tamoxifen citrate 20 mg qd, other drugs cut in dose, listed as tamoxifen
  response to treatment: responded well
[5]; to Day 148, tamoxifen 20 mg daily
  reduction of concurrent bipolar medication: Topamax and Fluoxetine were able to be discontinued, and the dose of Abilify was significantly reduced
[7]
  time remained stable since beginning treatment: approximately 18 months
[7]; tamoxifen citrate 10 mg or 20 mg base equivalents taken regularly as only mood-stabilizing medication
  bipolar symptoms: no longer has bipolar symptoms
[7]; tamoxifen citrate 20 mg base equivalents daily for two weeks
  mood stability: increased mood stability and overall feeling of well being
[10]; Day 13, tamoxifen citrate 20 mg qd, Strattera not taken
  anger: felt less angry even without taking the Strattera
[10]; Day 52, Lamictal lowered to 100 mg qd
  subject's report to study coordinator: noticing the ability to sense their moods better
[10]; Day 70, dose forgotten the day before
  mood after a forgotten dose: felt more depressed than any day since they started the program
[10]; Day 77
  out of control spending: they have not had this problem since they went on the Tamoxifen
[10]; Day 84
  outbursts: one outburst with their spouse, the first since starting Tamoxifen
[10]; listed as Tamoxifen
  onset of noticed difference: positive difference around four days after starting
[10]; listed as tamoxifen citrate
  onset of noticed difference: noticed a difference within three or four days
[10]; to Day 98, since starting Tamoxifen Citrate
  moods, spending, anger (synopsis): their moods have been level, their normally “out of control spending” was no longer a problem and their anger and problems with spouse have all but vanished
[10]; to Day 98, tamoxifen 20 mg daily
  reduction of concurrent bipolar medication: Lamictal was able to be discontinued, and Strattera was able to remain discontinued with mood stabilization
[8]
  symptom-free period after the course: three months with no symptoms of depression
  time to lessening of symptoms of depression after the first dose: within the first eight hours
  symptoms of depression after the descending dose course: Symptoms of depression were alleviated
[3]
  mood swings with the antiestrogen as only bipolar medication: controls mood swings without the concurrent use of other bipolar medication
[3]; listed as tamoxifen citrate
  mood swings with the antiestrogen as only bipolar medication: mood swings became virtually non-existent

## CN(C)CCCN1c2ccccc2CCc2ccccc21 [Imipramine hydrochloride]
[2]
  side effects / reason for discontinuation of earlier medication: extreme hand tremors
[3]
  effect of earlier medication on bipolar mood swings: continued to have bipolar swings

## Cc1nc2n(c(=O)c1CCN1CCC(c3noc4cc(F)ccc34)CC1)CCCC2 [Risperdal, Risperidone]
[2]
  side effects / reason for discontinuation of earlier medication: inability to work or function to a satisfactory level

## CC1=C(/C=C/C(C)=C/C=C/C(C)=C\C(=O)O)C(C)(C)CCC1 [Accutane]
[6]; Day 95, Accutane 30 mg qd with tamoxifen citrate 30 mg qd
  depression under Accutane: still shows no signs of depression
